Holding throughout (assay type): cell-based
One assay has as its system SARS-CoV-2 SEMpv (D614G). Conditions: read-out: EC50, pseudovirus entry.
Assay [1] relates to SARS-CoV-2 Omicron (BA.1). As to the kind of experiment: microbe, parasite or virus in culture. Particulars: Omicron (BA.1), compared with the other variants.
The subject of a further assay is SARS-CoV-2 SEMpv (N501Y). Particulars: read-out: EC50, pseudovirus entry.

One may read the EC50 as the concentration that produces a half-maximal response.

Take `C=C(C)[C@@H]1CC[C@]2(CO)CC[C@]3(C)[C@H](CC[C@@H]4[C@@]5(C)CC[C@@H](O)C(C)(C)[C@@H]5CC[C@]43C)[C@@H]12` [Compound 5, 3-epi-Betulin]: the results for the EC50 in the assay with SARS-CoV-2 SEMpv (D614G) and in the assay on SARS-CoV-2 SEMpv (N501Y) were 12.5 µM and 13.1 µM, respectively. Besides, the “inhibition activity against variant, in words” value in assay [1] is listed as “did not perform as well”.
